Test results published in ChEMBL document CHEMBL1152066, “7,10-Bis(2-mercapto-2-methyl)propyl-7,10-diazapalmitic acid: a novel, N2S2 ligand for technetium-99m” (Bioorg Med Chem Lett, 1996).
“And” between values parts separate entries of the source, which are not always exact repeats. Equal entries are not always repeated.

Legend:
Type in all cases: ADME, organism-based
Details in all cases: in vivo
Rattus norvegicus [1] = experiment: (§1) Distribution of radioactivity in stomach of fasted rats following concomitant intravenous administration of [99mTc]7. value expressed as % injected dose / organ
Rattus norvegicus [2] = experiment: Distribution of radioactivity in kidney of fasted rats following concomitant intravenous administration of [99mTc]7. value expressed as % injected dose / organ
Rattus norvegicus [3] = experiment: Distribution of radioactivity in heart of fasted rats following concomitant intravenous administration of [99mTc]-7. value expressed as % injected dose / organ
Rattus norvegicus [4] = experiment: Distribution of radioactivity in lung of fasted rats following concomitant intravenous administration of [99mTc]7. value expressed as % injected dose / organ
Rattus norvegicus [5] = experiment: Distribution of radioactivity in spleen of fasted rats following concomitant intravenous administration of [99mTc]-7. value expressed as % injected dose / organ
Rattus norvegicus [6] = experiment: as §1; remark: listed apart in the source

Row | SMILES | Injected dose/organ (Rattus norvegicus [1]) | Injected dose/organ (Rattus norvegicus [2]) | Injected dose/organ (Rattus norvegicus [3]) | Injected dose/organ (Rattus norvegicus [4]) | Injected dose/organ (Rattus norvegicus [5]) | Injected dose/organ (Rattus norvegicus [6]) [%]
1 | O=C(O)CCCCCCCCCCCCCCc1ccc([125I])cc1 | 0.27% | 2.07% and 0.71% | 1.86% and 2.94% | 1.25% and 0.77% | 0.54% and 0.57% | 0.42
2 | CCCCCCN(CCN(CCCCCC(=O)O)CC(C)(C)S)CC(C)(C)S | 0.27% and 0.18% | 3.42% and 1.18% | 0.22% and 0.56% | 1.19% and 0.73% | 0.7% and 0.78% | –
